Measured values as given in patent publication US11174245B2, “Benzimidazole compounds and derivatives as EGFR inhibitors” (Boehringer Ingelheim International GmbH, priority 2018, dated 2021).

Columns and labels:
EGFR wt = EGFR wt (Homo sapiens (Human), UniProt P00533); assay: Biochemical EGFR inhibition assay (TR-FRET, poly-GT substrate), EGFR wt; settings: read-out: wt (5 μM ATP) IC50; 5 μM ATP
Procedure: (§1) Biochemical EGFR Inhibition Assays
(§2) Initially, the inhibitory effect of compounds according to the invention is measured in biochemical assays which measure the phosphorylation activity of EGFR enzyme forms on poly-GT substrate in the presence of different concentrations of ATP (5 μM and 100 μM final assay concentration).
(§3) The following enzyme forms of EGFR are representative examples that can be used in these assays at the given concentrations:
(§4) For the chosen highest assay concentration of 100 μM, 150 nL of compound solution is transferred from a 10 mM DMSO compound stock solution. A series of eleven fivefold dilutions per compound is transferred to the assay plate, compound dilutions are tested in duplicates. DMSO is added as backfill to a total volume of 150 nL. The assay runs on a fully automated robotic system.
(§5) These biochemical EGFR enzyme form compound dose-response assays quantify the kinase activity via phosphorylation of a tagged poly-GT substrate. The results of the assay are provided as IC50 values.

[1] = target: EGFR del19 T790M C797S protein in Ba/F3 cells (Homo sapiens, UniProt P00533, C797S/DEL746-750/T790M); assay: pEGFR assay (AlphaScreen Surefire, EGFR Tyr1068 phosphorylation); type: cell-based
Procedure: Transduced cells were selected using puromycin. Following selection, IL-3 was withdrawn and IL-3 independent cells cultured. p-EGFR Tyr1068 was determined using the AlphaScreen Surefire pEGF Receptor (Tyr1068) Assay (PerkinElmer, TGRERS). […] Subsequently, 60.000 cells/well in 60 μL were added. Cells were incubated with compound for 4 h at 37° C. […] The mixture was incubated at room temperature with shaking (700 rpm) for 20 min. After centrifugation, 4 μL of the lysate were transferred to Proxiplates. […] Plates were shaken for 1 min (1400 rpm) and incubated for 2 h at room temperature in the dark.
The results of the assay are provided as IC50 values (see table 12).

[2] = target: EGFR (mutated) 695-1022, T790M, C797S, L858R (Homo sapiens (Human), UniProt P00533, C797S/L858R/T790M); assay: Biochemical EGFR inhibition assay (TR-FRET, poly-GT substrate), EGFR T790M C797S L858R; settings: read-out: LR_TM_CS (5 μM ATP) IC50; 5 μM ATP
Procedure: as §1, §2, §3, §4, §5

Sequence of EGFR del19 T790M C797S protein in Ba/F3 cells (P00533 with tags, fused parts or gaps C797S/DEL746-750/T790M limits assumed): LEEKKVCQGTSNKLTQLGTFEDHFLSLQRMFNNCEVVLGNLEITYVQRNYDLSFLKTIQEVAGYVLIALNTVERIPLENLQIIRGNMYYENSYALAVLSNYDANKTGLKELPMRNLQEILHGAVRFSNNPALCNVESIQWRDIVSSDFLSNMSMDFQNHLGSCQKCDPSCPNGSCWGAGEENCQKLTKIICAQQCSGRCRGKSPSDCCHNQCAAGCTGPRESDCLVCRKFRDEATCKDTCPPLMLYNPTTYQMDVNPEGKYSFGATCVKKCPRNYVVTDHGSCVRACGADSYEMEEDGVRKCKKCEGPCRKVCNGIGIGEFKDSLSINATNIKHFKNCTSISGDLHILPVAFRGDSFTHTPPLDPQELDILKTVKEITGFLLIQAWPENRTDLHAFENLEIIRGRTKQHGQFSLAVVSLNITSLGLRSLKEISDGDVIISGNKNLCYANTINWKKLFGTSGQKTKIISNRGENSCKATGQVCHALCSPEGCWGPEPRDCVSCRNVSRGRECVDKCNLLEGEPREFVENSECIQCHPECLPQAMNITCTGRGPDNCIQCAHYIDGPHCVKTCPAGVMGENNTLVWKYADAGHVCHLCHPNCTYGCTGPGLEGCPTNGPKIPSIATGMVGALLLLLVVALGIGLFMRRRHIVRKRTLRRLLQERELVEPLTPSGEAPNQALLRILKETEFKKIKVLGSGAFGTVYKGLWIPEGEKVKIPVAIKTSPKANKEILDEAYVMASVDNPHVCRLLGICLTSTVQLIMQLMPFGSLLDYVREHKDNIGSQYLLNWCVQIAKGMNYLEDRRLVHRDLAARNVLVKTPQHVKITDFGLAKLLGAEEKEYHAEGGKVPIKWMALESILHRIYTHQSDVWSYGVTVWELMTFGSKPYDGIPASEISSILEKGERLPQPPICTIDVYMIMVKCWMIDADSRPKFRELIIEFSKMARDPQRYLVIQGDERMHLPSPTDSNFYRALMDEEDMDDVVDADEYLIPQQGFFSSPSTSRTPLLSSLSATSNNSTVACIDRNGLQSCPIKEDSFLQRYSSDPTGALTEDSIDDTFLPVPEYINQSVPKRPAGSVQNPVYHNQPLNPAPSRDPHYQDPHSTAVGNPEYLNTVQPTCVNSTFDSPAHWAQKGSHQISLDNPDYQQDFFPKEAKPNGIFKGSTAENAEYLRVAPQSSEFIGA
Sequence of EGFR (mutated) 695-1022, T790M, C797S, L858R (P00533 695-1022 T790M/C797S/L858R): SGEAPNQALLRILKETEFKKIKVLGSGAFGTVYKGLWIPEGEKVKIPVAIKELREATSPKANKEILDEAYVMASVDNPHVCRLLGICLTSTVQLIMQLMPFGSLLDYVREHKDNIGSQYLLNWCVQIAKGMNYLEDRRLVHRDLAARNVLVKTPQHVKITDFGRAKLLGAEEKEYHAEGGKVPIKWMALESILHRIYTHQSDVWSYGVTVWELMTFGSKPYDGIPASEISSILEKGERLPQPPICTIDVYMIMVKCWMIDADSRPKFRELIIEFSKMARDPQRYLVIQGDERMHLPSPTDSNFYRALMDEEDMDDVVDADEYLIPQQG
Sequence of EGFR wt (P00533 25-1210): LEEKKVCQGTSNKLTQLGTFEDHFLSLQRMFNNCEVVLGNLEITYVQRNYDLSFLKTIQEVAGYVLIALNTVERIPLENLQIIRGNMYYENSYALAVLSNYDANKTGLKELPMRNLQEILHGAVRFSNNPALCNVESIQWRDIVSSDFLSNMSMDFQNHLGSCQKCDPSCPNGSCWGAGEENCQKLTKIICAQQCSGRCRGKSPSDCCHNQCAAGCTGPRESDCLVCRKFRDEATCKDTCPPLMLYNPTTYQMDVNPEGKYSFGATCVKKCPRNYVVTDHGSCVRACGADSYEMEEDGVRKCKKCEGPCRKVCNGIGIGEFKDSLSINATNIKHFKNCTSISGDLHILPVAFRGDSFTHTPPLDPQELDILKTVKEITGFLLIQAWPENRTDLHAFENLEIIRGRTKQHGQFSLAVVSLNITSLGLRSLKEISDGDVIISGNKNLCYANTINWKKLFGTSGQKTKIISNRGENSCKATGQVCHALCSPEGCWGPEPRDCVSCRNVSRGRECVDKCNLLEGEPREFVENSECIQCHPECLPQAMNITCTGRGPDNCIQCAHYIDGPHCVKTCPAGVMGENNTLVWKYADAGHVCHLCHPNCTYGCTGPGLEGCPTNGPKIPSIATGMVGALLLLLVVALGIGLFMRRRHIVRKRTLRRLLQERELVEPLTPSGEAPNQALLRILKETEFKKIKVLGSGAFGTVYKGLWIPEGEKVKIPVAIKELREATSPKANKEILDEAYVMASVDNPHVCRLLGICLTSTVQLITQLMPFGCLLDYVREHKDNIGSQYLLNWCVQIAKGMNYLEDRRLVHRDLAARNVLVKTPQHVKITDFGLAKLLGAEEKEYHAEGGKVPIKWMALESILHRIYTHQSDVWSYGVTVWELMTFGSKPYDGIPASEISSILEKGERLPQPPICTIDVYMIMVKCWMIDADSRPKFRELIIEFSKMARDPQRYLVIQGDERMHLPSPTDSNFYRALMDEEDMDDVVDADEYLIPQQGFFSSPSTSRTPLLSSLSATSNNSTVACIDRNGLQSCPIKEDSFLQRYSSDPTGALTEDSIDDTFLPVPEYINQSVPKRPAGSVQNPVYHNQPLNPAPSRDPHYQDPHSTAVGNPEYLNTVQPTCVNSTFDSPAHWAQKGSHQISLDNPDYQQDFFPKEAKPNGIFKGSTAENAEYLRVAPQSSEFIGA

IC50 (EGFR wt) | IC50 [1] | IC50 [2] | Structure (SMILES)
0.302 µM | 0.012 µM | 0.0048 µM | O=C(/N=c1\[nH]c2ccccc2n1[C@H]1CC[C@@H](O)CC1)c1ccnc(-c2ccc(F)cc2F)c1 [I-180]
0.031 µM | 0.012 µM | 0.0017 µM | COc1ccccc1-c1cc(C(=O)/N=c2\[nH]c3cc(CN4CCOCC4)ccc3n2[C@H]2CCC[C@H](O)C2)ccn1 [I-181]
1.52 µM | 0.019 µM | 0.0078 µM | Cn1cc(-c2cc(C(=O)/N=c3\[nH]c4cc(CCCO)ccc4n3CC(C)(C)O)ccn2)cn1 [I-184]
3.24 µM | 0.023 µM | 0.0356 µM | O=C(/N=c1\[nH]c2ccccc2n1[C@H]1CC[C@@H](O)CC1)c1ccnc(-c2cccc(F)c2)c1 [I-185]
1.66 µM | 0.044 µM | 0.0074 µM | Cn1cc(-c2cc(C(=O)/N=c3\[nH]c4ccccc4n3[C@H]3COC[C@@H](O)C3)ccn2)cn1 [I-191]
1.4 µM | 0.005 µM | 0.003 µM | COc1ccncc1-c1cc(C(=O)/N=c2\[nH]c3cc(CN4CCOCC4)ccc3n2[C@H]2CC[C@@H](O)CC2)cc(C#N)n1 [I-196]
5.01 µM | 0.007 µM | 0.0027 µM | Cc1cc(C(=O)/N=c2\[nH]c3cc(CN4CCOCC4)ccc3n2[C@H]2CC[C@@H](O)CC2)cc(-c2cnn(C)c2)n1 [I-197]
0.0771 µM | 0.018 µM | 0.0077 µM | COc1ccccc1-c1cc(C(=O)/N=c2\[nH]c3ccccc3n2[C@@H]2CC[C@H](O)[C@@H](O)C2)ccn1 [I-198]
1.52 µM | 0.015 µM | 0.0068 µM | Cn1cc(-c2cc(C(=O)/N=c3\[nH]c4cc(CC#N)ccc4n3CC(C)(C)O)ccn2)cn1 [I-199]
0.231 µM | 0.002 µM | 0.0012 µM | O=C(/N=c1\[nH]c2ccccc2n1[C@H]1CC[C@@H](O)CC1)c1ccnc(-c2cnn(C(F)F)c2)c1 [I-201]
0.173 µM | 0.005 µM | 0.0009 µM | CC(=O)N1CCC(c2ccc3c(c2)[nH]/c(=N\C(=O)c2cc(C#N)nc(-c4cnn(C)c4)c2)n3[C@H]2CC[C@@H](O)CC2)CC1 [I-202]
9.29 µM | 0.006 µM | 0.0262 µM | Cc1cc(C(=O)/N=c2\[nH]c3ccccc3n2[C@H]2CCC[C@H](O)C2)cc(-c2cnn(C)c2)n1 [I-204]
1.48 µM | 0.008 µM | 0.0036 µM | CC(=O)N1CCC(c2ccc3c(c2)[nH]/c(=N\C(=O)c2cc(C)nc(-c4cnn(C)c4)c2)n3[C@H]2CC[C@@H](O)CC2)CC1 [I-205]
12.9 µM | 0.037 µM | 0.0177 µM | Cc1cc(C(=O)/N=c2\[nH]c3ccccc3n2[C@@H]2C[C@H](O)C[C@H](O)C2)cc(-c2cnn(C)c2)n1 [I-206]
0.539 µM | 0.026 µM | 0.003 µM | Cn1cc(-c2cc(C(=O)/N=c3\[nH]c4ccccc4n3[C@H]3C[C@H](O)C[C@H](O)C3)ccn2)cn1 [I-207]
7.47 µM | 0.044 µM | 0.0054 µM | Cc1cc(C(=O)/N=c2\[nH]c3cc(CN4CCN(C)CC4)ccc3n2[C@H]2CCC[C@H](O)C2)cc(-c2cnn(C)c2)n1 [I-208]
5.8 µM | 0.014 µM | 0.0081 µM | Cc1cc(C(=O)/N=c2\[nH]c3cc(CN4CCOCC4)ccc3n2[C@H]2CCC[C@H](O)C2)cc(-c2cnn(C)c2)n1 [I-209]
0.664 µM | 0.009 µM | 0.0043 µM | Cn1cc(-c2cc(C(=O)/N=c3\[nH]c4ccccc4n3[C@H]3CCC[C@H](O)C3)cc(C#N)n2)cn1 [I-210]

The remaining lines, values behind:

Structure (SMILES) | IC50 (EGFR wt) | IC50 [1] | IC50 [2]
Cn1cc(-c2cc(C(=O)/N=c3\[nH]c4cc(CN5CCOCC5)ccc4n3[C@H]3CC[C@@H](O)CC3)cc(F)n2)cn1 [I-135] | 0.225 µM | 0.002 µM | 0.0008 µM
O=C(/N=c1\[nH]c2ccccc2n1[C@H]1CC[C@@H](O)CC1)c1ccnc(-c2ccccc2F)c1 [I-141] | 0.312 µM | 0.002 µM | 0.002 µM
COc1ccccc1-c1cc(C(=O)/N=c2\[nH]c3ccccc3n2[C@@H]2CC[C@H](O)[C@H](O)C2)ccn1 [I-144] | 0.11 µM | 0.003 µM | 0.0069 µM
Cn1cc(-c2cc(C(=O)/N=c3\[nH]c4cc(CN5CCOCC5)ccc4n3[C@H]3CC[C@@H](O)CC3)cc(C#N)n2)cn1 [I-145] | 0.397 µM | 0.003 µM | 0.0017 µM
Cn1cc(-c2cc(C(=O)/N=c3\[nH]c4ccccc4n3[C@H]3CC[C@@H](O)CC3)cc(Cl)n2)cn1 [I-146] | 1.54 µM | 0.005 µM | 0.0028 µM
COc1ccccc1-c1cc(C(=O)/N=c2\[nH]c3cc(CN4CCOCC4)ccc3n2[C@H]2CCC[C@@H](O)C2)ccn1 [I-148] | 0.0778 µM | 0.004 µM | 0.0033 µM
COc1ccccc1-c1cc(C(=O)/N=c2\[nH]c3ccccc3n2[C@H]2CC[C@H](O)[C@H](O)C2)ccn1 [I-149] | 0.148 µM | 0.004 µM | 0.0085 µM
O=C(/N=c1\[nH]c2ccccc2n1[C@H]1CC[C@@H](O)CC1)c1ccnc(-c2coc3cccnc23)c1 [I-156] | 3.15 µM | 0.005 µM | 0.0133 µM
COc1ccc(F)cc1-c1cc(C(=O)/N=c2\[nH]c3ccccc3n2[C@H]2CC[C@@H](O)CC2)ccn1 [I-157] | 0.0704 µM | 0.005 µM | 0.0046 µM
COc1ccccc1-c1cc(C(=O)/N=c2\[nH]c3cc(C4CCN(C(C)=O)C4)ccc3n2CC(C)(C)O)ccn1 (stereo not drawn) [I-158] | 0.0563 µM | 0.006 µM | 0.0015 µM
Cc1cccc(-c2cc(C(=O)/N=c3\[nH]c4ccccc4n3[C@H]3CC[C@@H](O)CC3)ccn2)c1 [I-161] | 0.205 µM | 0.006 µM | 0.0024 µM
COc1c(C)cccc1-c1cc(C(=O)/N=c2\[nH]c3ccccc3n2[C@H]2CC[C@@H](O)CC2)ccn1 [I-162] | 1.18 µM | 0.006 µM | 0.0142 µM
O=C(/N=c1\[nH]c2ccccc2n1[C@H]1CC[C@@H](O)CC1)c1ccnc(-c2ccccc2OC(F)F)c1 [I-163] | 0.11 µM | 0.007 µM | 0.0104 µM
COc1ccncc1-c1cc(C(=O)/N=c2\[nH]c3ccccc3n2[C@H]2CC[C@@H](O)CC2)cc(C#N)n1 [I-167] | 0.995 µM | 0.007 µM | 0.0046 µM
Cn1cc(-c2cc(C(=O)/N=c3\[nH]c4ccccc4n3[C@H]3COC[C@H](O)C3)ccn2)cn1 [I-168] | 1.27 µM | 0.01 µM | 0.005 µM
COc1cc(F)ccc1-c1cc(C(=O)/N=c2\[nH]c3ccccc3n2[C@H]2CC[C@@H](O)CC2)ccn1 [I-169] | 0.0816 µM | 0.011 µM | 0.0028 µM
C#Cc1cc(C(=O)/N=c2\[nH]c3ccccc3n2[C@H]2CC[C@@H](O)CC2)cc(-c2cnn(C)c2)n1 [I-171] | 2.97 µM | 0.008 µM | 0.0088 µM
COc1c(F)cccc1-c1cc(C(=O)/N=c2\[nH]c3ccccc3n2[C@H]2CC[C@@H](O)CC2)ccn1 [I-175] | 0.557 µM | 0.01 µM | 0.0136 µM
O=C(/N=c1\[nH]c2ccccc2n1[C@H]1CC[C@@H](O)CC1)c1ccnc(-c2ccncc2)c1 [I-176] | 0.293 µM | 0.011 µM | 0.004 µM
O=C(/N=c1\[nH]c2ccccc2n1[C@H]1CC[C@@H](O)CC1)c1ccnc(-c2cccn3ncnc23)c1 [I-179] | 3.6 µM | 0.012 µM | 0.0338 µM
